Source: article PMC7041945, “Misfolded proteins bind and activate death receptor 5 to trigger apoptosis during unresolved endoplasmic reticulum stress” (eLife, 2020)

System: CHOP, BiP, and DR5 mRNA in HCT116 cells
Experiment: qPCR of UPR target transcripts (CHOP, BiP, DR5)
Format: cell-based, Homo sapiens
Settings: Rep 2; for avg. fold induction CHOP / avg. fold induction DR5 total / fold induction CHOP / fold induction DR5 total: relative to empty traffo; for avg. fold induction CHOP / avg. fold induction DR5 total: mean of 3 replicates
Protocol: Cells were grown in 6-well plates and harvested with 0.5 ml of TRIzol reagent (Life Technologies) per manufacturer’s protocol to extract RNA. For cDNA synthesis, 500 ng of total RNA was reverse transcribed with 2 μl of the SuperScript VILO master mix (Life Technologies # 11755050) in a total reaction volume of 10 μl following the manufacturer’s protocol for reaction temperature and duration. The reverse transcription product was diluted to 200 μl with 10 mM Tris-HCl pH 8.2 and used at 1:100 dilution for subsequent RT-PCR reactions.
PCR samples were prepared as described by manufacturer’s protocols from iQ SYBR Green Supermix (BioRad #17088800).
For each experiment, qRT-PCR reactions were set up in triplicate and run using a CFX96 Real Time System (Bio-Rad). Quantitation cycles were determined with CFX Manager 3.0 software (Bio-Rad) and then normalized to GAPDH as an internal control.

INS-GFP: GFP-tagged proinsulin expressed from plasmid
avg. fold induction CHOP (3 hr): 2.592
avg. fold induction DR5 total (3 hr): 0.7038
fold induction CHOP (3 hr, replicate 1): 2.854
fold induction DR5 total (3 hr, replicate 1): 0.6229
fold induction CHOP (3 hr, replicate 2): 2.329
fold induction DR5 total (3 hr, replicate 2): 0.8572
fold induction CHOP (3 hr, replicate 3): 2.592
fold induction DR5 total (3 hr, replicate 3): 0.6314
2^-(deltaCq) CHOP (3 hr, replicate 1): 0.03284
2^-(deltaCq) DR5 total (3 hr, replicate 1): 0.01816
Cq CHOP (3 hr, replicate 1): 24.0903
Cq DR5 total (3 hr, replicate 1): 24.9448
Cq(sample) - avg Cq(GAPDH), CHOP (3 hr, replicate 1): 4.928
Cq(sample) - avg Cq(GAPDH), DR5 total (3 hr, replicate 1): 5.783
2^-(deltaCq) CHOP (3 hr, replicate 2): 0.0268
2^-(deltaCq) DR5 total (3 hr, replicate 2): 0.02499
Cq CHOP (3 hr, replicate 2): 24.3837
Cq DR5 total (3 hr, replicate 2): 24.4842
Cq(sample) - avg Cq(GAPDH), CHOP (3 hr, replicate 2): 5.2218
Cq(sample) - avg Cq(GAPDH), DR5 total (3 hr, replicate 2): 5.322
2^-(deltaCq) CHOP (3 hr, replicate 3): 0.02982
2^-(deltaCq) DR5 total (3 hr, replicate 3): 0.01841
Cq CHOP (3 hr, replicate 3): 24.2295
Cq DR5 total (3 hr, replicate 3): 24.9253
Cq(sample) - avg Cq(GAPDH), CHOP (3 hr, replicate 3): 5.068
Cq(sample) - avg Cq(GAPDH), DR5 total (3 hr, replicate 3): 5.763
avg. fold induction CHOP (7 hr): 6.389
avg. fold induction DR5 total (7 hr): 1.383
fold induction CHOP (7 hr, replicate 1): 6.347
fold induction DR5 total (7 hr, replicate 1): 1.604
fold induction CHOP (7 hr, replicate 2): 6.646
fold induction DR5 total (7 hr, replicate 2): 1.272
fold induction CHOP (7 hr, replicate 3): 6.175
fold induction DR5 total (7 hr, replicate 3): 1.275
2^-(deltaCq) CHOP (7 hr, replicate 1): 0.07302
2^-(deltaCq) DR5 total (7 hr, replicate 1): 0.04677
Cq CHOP (7 hr, replicate 1): 23.0759
Cq DR5 total (7 hr, replicate 1): 23.7188
Cq(sample) - avg Cq(GAPDH), CHOP (7 hr, replicate 1): 3.776
Cq(sample) - avg Cq(GAPDH), DR5 total (7 hr, replicate 1): 4.418
2^-(deltaCq) CHOP (7 hr, replicate 2): 0.07646
2^-(deltaCq) DR5 total (7 hr, replicate 2): 0.03708
Cq CHOP (7 hr, replicate 2): 23.0096
Cq DR5 total (7 hr, replicate 2): 24.0535
Cq(sample) - avg Cq(GAPDH), CHOP (7 hr, replicate 2): 3.709
Cq(sample) - avg Cq(GAPDH), DR5 total (7 hr, replicate 2): 4.753
2^-(deltaCq) CHOP (7 hr, replicate 3): 0.07103
2^-(deltaCq) DR5 total (7 hr, replicate 3): 0.03717
Cq CHOP (7 hr, replicate 3): 23.1157
Cq DR5 total (7 hr, replicate 3): 24.0502
Cq(sample) - avg Cq(GAPDH), CHOP (7 hr, replicate 3): 3.815
Cq(sample) - avg Cq(GAPDH), DR5 total (7 hr, replicate 3): 4.75
avg. fold induction CHOP (24 hr): 5.115
avg. fold induction DR5 total (24 hr): 1.535
fold induction CHOP (24 hr, replicate 1): 6.073
fold induction DR5 total (24 hr, replicate 1): 1.494
fold induction CHOP (24 hr, replicate 2): 4.514
fold induction DR5 total (24 hr, replicate 2): 1.718
fold induction CHOP (24 hr, replicate 3): 4.759
fold induction DR5 total (24 hr, replicate 3): 1.392
